According to publication PMC6017101, “In Silico and In Vitro Study of the Bromelain-Phytochemical Complex Inhibition of Phospholipase A2 (Pla2)” (Molecules : A Journal of Synthetic Chemistry and Natural …, 2018):

Each molecule was assayed against T1, porcine group IB phospholipase A2 (pG-IB); Pla2 (Sus scrofa, UniProt P00592) (assay: colorimetric phenol red assay, […] nm, lecithin hydrolysis; median-effect plot). Conditions: read-out: Dm (mg/mL) ^a (converted).
T1 construct: gene PLA2G1B; commercial enzyme (Sigma-Aldrich); no tag stated
T1 sequence (P00592 23-146): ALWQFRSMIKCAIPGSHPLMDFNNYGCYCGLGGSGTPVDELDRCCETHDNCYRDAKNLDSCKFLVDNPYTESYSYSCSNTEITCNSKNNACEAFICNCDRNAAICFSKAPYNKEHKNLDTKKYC
Assay type: biochemical

Row | IC50 | Compound
1 | 200 µM | O=c1cc(-c2ccc(O)c(-c3c(O)cc(O)c4c(=O)cc(-c5ccc(O)cc5)oc34)c2)oc2cc(O)cc(O)c12 [amenthoflavone]
2 | 328 µM | C[C@H]1[C@H](C)CC[C@]2(C(=O)O[C@@H]3O[C@H](CO[C@@H]4O[C@H](CO)[C@@H](O[C@@H]5O[C@@H](C)[C@H](O)[C@@H](O)[C@H]5O)[C@H](O)[C@H]4O)[C@@H](O)[C@H](O)[C@H]3O)CC[C@]3(C)C(=CC[C@@H]4[C@@]5(C)C[C@@H](O)[C@H](O)[C@@](C)(CO)[C@@H]5CC[C@]43C)[C@H]12 [asiaticoside]
3 | 2330 µM | C[C@@H]1CC[C@@]2(OC1)O[C@H]1C[C@H]3[C@@H]4CC=C5C[C@@H](O)CC[C@]5(C)[C@H]4CC[C@]3(C)[C@H]1[C@@H]2C [diosgenin]
